Patent US20160030407A1, “Method of Treating Inflammatory Lung Disease” (priority 2010, published 2016)
In brackets after ≈: the same amount, converted by molar mass. Several values for one entry are separate records, joined by “and”; a condition that tells them apart may be missing. Equal entries are not always repeated.

Columns and labels:
nAChR α4/β2 = target: T1, nAChR α4/β2 (Homo sapiens, UniProt P17787+P43681); format: cell-based; conditions: 100 μM Ach + 0.3 μM epibatidine; not concentration-dependent, IC50s could not be determined
T1 construct: host or cells: HEK293 cells, transient
Experimental: (§1) Briefly, cells were incubated with […] dye for 30 min at 37° C.

nAChR α3/β4 [1] = target: T2, nAChR α3/β4 (Homo sapiens, UniProt P30926+P32297); format: cell-based; conditions: with 10 μM Ach
Experimental: as §1

NFκB = NFκB luciferase assay (inhibition of TNFα-induced NFκB activity); format: cell-based, Human
Experimental: The smokeless tobacco used in these experiments was plain long-leaf Copenhagen tobacco purchased from a local vendor. Crude extract was extracted with methanol and water and clarified by centrifugation and filtration. The alkaloid extract was prepared from sodium hydroxide and methanol extraction, organic phase separation and purification. All treatment samples were prepared as a function of weight (μg/ml), and all samples were diluted in DMSO.
Human […] kidney cells (HEK293) transfected with an NFκB luciferase reporter were challenged with TNFα for three hours, then samples were applied to the challenged cells.
The effect of S-(−)-anatabine on TNFα-induced NFκB activity in vitro was determined as described in Example 1.

[2] = Treatment of a patient with autism and a seizure disorder; format: in vivo, human; conditions: one patient, 1.0 mg three times per day
From the text: A patient, who was diagnosed with autism and a seizure disorder, had brain surgery and began rehabilitation the following month.

autoimmune thyroiditis = test: Experimental Autoimmune Thyroiditis (Example 16A): thyroid histopathology; format: in vivo, mice; conditions: 0.05 mg/ml in drinking water (approx. 12.5 mg/kg/day); day 21; p=0.05
Experimental: Thyroiditis was induced by injection of thyroglobulin emulsified in complete Freund's adjuvant […]. On days 0 and 7, female mice received subcutaneous injection of 100 μg thyroglobulin (2 injections of 50 μg each). Control mice drank water. […] Mice were sacrificed on day 21.
Thyroid glands were removed. One lobe was fixed in formalin for histopathology. One lobe was frozen for immunohistochemistry. The extent of lymphocytic infiltration and destruction of the thyroid gland was assessed digitally. Initially, the entire thyroid lobe was examined. […] The final score was expressed as the percent of the thyroid area infiltrated by lymphocytes and damaged. The results are shown graphically in FIG. 42. […] Photomicrographs of hematoxylin- and eosin-stained thyroids from control and anatabine-treated mice are shown in FIG. 43A (control) and FIG. 43B (anatabine-treated).

[3] = Single i.v. dose toxicity: clinical chemistry; format: in vivo, Sprague-Dawley rats
From the text: On day 15, urine was collected on all surviving animals for urinalysis. The animals were euthanized and bled via cardiac puncture. Blood was collected for hematology, clinical chemistry, and coagulation analysis. Tissues were collected, weighed, and stored in 10% neutral-buffered formalin for possible future analysis.

nAChR α3/β4 [4] = target: T2, nAChR α3/β4; test: nAChR α3/β4 channel agonist assay (FLIPR); format: cell-based; conditions: 0.3-1000 μM
Experimental: as §1

[5] = 0.1 mg/kg anatabine, nicotine 0.75 mg/kg
[6] = 0.1 mg/kg, gender F, group mean
[7] = 0.1 mg/kg, gender M, group mean
[8] = 0.75 mg/kg, gender F, group mean
[9] = 0.75 mg/kg, gender M, group mean
[10] = Anatabine 0.1 mg/kg single i.v. dose, female rats, individual animals B6-B10
[11] = Anatabine 0.1 mg/kg single i.v. dose, male rats, individual animals B1-B5
[12] = Anatabine 0.1 mg/kg, M, Mean, n 5
[13] = Anatabine 0.75 mg/kg single i.v. dose, female rats, individual animals C6-C10
[14] = Anatabine 0.75 mg/kg single i.v. dose, male rats, individual animals C1-C5
[15] = Anatabine 0.75 mg/kg, F, Mean, n 5

T2 sequence (P32297 32-505): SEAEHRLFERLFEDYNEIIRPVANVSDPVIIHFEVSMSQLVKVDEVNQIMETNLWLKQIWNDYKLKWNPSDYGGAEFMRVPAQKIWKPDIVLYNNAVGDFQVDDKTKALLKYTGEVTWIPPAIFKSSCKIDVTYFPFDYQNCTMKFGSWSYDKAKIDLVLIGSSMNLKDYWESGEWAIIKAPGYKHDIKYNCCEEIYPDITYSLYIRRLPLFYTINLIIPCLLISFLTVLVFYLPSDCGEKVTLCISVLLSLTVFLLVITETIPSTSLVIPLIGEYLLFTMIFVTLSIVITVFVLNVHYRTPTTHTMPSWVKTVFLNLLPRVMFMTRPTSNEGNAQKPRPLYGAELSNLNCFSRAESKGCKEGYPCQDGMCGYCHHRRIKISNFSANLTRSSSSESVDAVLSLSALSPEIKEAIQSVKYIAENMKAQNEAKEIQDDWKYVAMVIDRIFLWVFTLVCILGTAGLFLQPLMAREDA
T2 sequence (P30926 22-498): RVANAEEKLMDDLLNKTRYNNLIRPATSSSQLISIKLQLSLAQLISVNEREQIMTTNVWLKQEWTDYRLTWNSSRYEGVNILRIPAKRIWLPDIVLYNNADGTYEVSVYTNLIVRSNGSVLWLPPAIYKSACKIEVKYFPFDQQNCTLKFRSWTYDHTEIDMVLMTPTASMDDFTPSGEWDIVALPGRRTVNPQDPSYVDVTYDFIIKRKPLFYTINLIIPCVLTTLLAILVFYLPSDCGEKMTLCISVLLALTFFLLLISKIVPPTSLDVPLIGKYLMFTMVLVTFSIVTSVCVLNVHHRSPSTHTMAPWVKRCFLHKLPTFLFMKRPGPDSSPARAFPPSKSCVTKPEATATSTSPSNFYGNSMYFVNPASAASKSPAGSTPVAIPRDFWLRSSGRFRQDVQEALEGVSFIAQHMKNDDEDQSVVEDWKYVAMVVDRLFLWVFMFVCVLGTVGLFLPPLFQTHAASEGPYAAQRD
T1 sequence (P43681 29-627): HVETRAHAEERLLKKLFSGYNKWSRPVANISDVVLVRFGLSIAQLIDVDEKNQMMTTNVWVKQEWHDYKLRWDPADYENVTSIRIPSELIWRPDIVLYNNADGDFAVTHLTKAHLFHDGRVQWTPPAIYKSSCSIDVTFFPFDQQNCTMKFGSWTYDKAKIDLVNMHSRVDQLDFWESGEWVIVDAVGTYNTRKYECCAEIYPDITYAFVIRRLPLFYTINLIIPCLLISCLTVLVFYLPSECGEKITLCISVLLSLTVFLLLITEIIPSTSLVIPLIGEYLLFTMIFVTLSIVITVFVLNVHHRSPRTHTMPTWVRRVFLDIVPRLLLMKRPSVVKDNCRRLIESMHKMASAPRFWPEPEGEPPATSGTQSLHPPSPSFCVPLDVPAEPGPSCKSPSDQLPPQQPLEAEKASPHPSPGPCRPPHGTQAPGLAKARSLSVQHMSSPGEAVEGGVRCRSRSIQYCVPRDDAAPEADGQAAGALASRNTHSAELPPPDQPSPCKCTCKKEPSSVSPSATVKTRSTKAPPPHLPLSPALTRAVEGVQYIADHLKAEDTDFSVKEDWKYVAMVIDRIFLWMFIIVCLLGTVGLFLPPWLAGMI
T1 sequence (P17787 26-502): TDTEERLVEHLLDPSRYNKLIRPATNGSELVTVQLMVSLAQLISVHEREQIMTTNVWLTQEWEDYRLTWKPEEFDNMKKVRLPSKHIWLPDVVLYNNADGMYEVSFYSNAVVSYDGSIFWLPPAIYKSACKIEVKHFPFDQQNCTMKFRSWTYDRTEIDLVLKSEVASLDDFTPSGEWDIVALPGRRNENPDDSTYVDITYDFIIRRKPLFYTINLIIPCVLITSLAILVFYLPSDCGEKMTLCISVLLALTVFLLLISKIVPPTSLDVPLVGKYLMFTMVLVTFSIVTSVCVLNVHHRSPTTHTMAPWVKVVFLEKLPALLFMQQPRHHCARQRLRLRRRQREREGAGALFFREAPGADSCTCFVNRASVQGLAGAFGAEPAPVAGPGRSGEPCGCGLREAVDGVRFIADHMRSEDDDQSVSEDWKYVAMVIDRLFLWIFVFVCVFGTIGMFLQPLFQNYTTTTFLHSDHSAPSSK

In the case of `C1=CCC(c2cccnc2)NC1` (racemic) [Anatabine, 1,2,3,6-tetrahydro-[2,3′]bipyridinyl], the inhibition (nAChR α4/β2) is reported as “inhibited receptor activity”, the potentiation (nAChR α3/β4 [1]) is reported as “Neither nicotine nor anatabine potentiated” and the “Effect on TNFα-induced NFκB-mediated transcription of luciferase” value (NFκB; HEK293 with NFκB luciferase reporter challenged with TNFα) is reported as “reduce this transcription to control levels”. For the same compound, the IC50 (NFκB; Homo sapiens, 20 ng/ml TNFα, HEK293 NFκB luciferase) was ~600 µg/mL (≈ 3.74 mM), the cognitive benefits [2] was “improved communication and language skills and the ability to focus” and the frequency of seizures ([2]; over 3 weeks) was “decreased from one per day to approximately one per week”. The “severity of thyroiditis (percent of thyroid area infiltrated and damaged)” value (autoimmune thyroiditis) was “less severe thyroiditis than control mice”, the “globulins vs vehicle controls, females” value [3, 5] was “slightly higher” and the “total protein vs vehicle controls, females” value [3, 5] was “somewhat higher”. The AST [3, 6] was 77.00 IU/L, the “DIR BILIRUBIN” value [3, 6] was 0.00 mg/dL and the “TOT BILIRUBIN” value [3, 6] was 0.00 mg/dL. The AST [3, 7] was 96.00 IU/L, the BUN [3, 7] was 18.00 mg/dL and the “DIR BILIRUBIN” value [3, 7] was 0.00 mg/dL. The “TOT BILIRUBIN” value [3, 7] was 0.00 mg/dL, the “TOT PROTEIN” value [3, 7] was 6.10 g/dL and the “DIR BILIRUBIN” value [3, 8] was 0.00 mg/dL. For the same compound, the “TOT BILIRUBIN” value [3, 8] was 0.00 mg/dL, the “DIR BILIRUBIN” value [3, 9] was 0.02 mg/dL and the “TOT BILIRUBIN” value [3, 9] was 0.02 mg/dL. The ALBUMIN [3, 10] was 3.6 g/dL (3×) and 3.5 g/dL and 3.8 g/dL, the “ALK PHOSPHATASE” value [3, 10] was 140 IU/L and 220 IU/L and the ALT [3, 10] was 57 IU/L and 43 IU/L and 47 IU/L and 62 IU/L and 39 IU/L. For the same compound, the AST [3, 10] was 78 IU/L and 69 IU/L and 70 IU/L and 86 IU/L and 82 IU/L, the BUN [3, 10] was 21 mg/dL (2×) and 19 mg/dL (3×) and the CHLORIDE [3, 10] was 99 mEq/L and 97 mEq/L. For the same compound, the CHOLESTEROL [3, 10] was 90 mg/dL and 74 mg/dL and 65 mg/dL and 66 mg/dL and 87 mg/dL, the CREATININE [3, 10] was 0.4 mg/dL (3×) and 0.5 mg/dL (2×) and the “DIR BILIRUBIN” value [3, 10] was 0 mg/dL. The GLOBULIN [3, 10] was 3.1 g/dL (3×) and 3 g/dL, the GLUCOSE [3, 10] was 170 mg/dL and 220 mg/dL and the PHOSPHORUS [3, 10] was 8.5 mg/dL (2×) and 8.2 mg/dL and 7.4 mg/dL and 7.8 mg/dL. For the same compound, the POTASSIUM [3, 10] was 5.4 mEq/L and 6.3 mEq/L and 5.2 mEq/L and 5.5 mEq/L and 6.7 mEq/L, the “TOT BILIRUBIN” value [3, 10] was 0 mg/dL and the “TOT PROTEIN” value [3, 10] was 6.7 g/dL (2×) and 6.3 g/dL and 6.9 g/dL and 6.6 g/dL. For the same compound, the ALBUMIN [3, 11] was 3.4 g/dL (2×) and 3.2 g/dL and 3.1 g/dL (2×), the “ALK PHOSPHATASE” value [3, 11] was 470 IU/L and the ALT [3, 11] was 92 IU/L and 65 IU/L and 74 IU/L and 44 IU/L and 78 IU/L. The AST [3, 11] was 97 IU/L and 99 IU/L and 93 IU/L and 85 IU/L, the BUN [3, 11] was 18 mg/dL (2×) and 21 mg/dL and 14 mg/dL and 19 mg/dL and the CHLORIDE [3, 11] was 98 mEq/L and 97 mEq/L (2×) and 99 mEq/L (2×). The CHOLESTEROL [3, 11] was 65 mg/dL and 64 mg/dL and 75 mg/dL and 56 mg/dL and 76 mg/dL, the CREATININE [3, 11] was 0.4 mg/dL (3×) and 0.3 mg/dL (2×) and the “DIR BILIRUBIN” value [3, 11] was 0 mg/dL. For the same compound, the GLOBULIN [3, 11] was 2.9 g/dL (2×) and 2.6 g/dL and 3.1 g/dL, the GLUCOSE [3, 11] was 210 mg/dL and the POTASSIUM [3, 11] was 5.9 mEq/L and 6.5 mEq/L and 6.6 mEq/L and 6.9 mEq/L and 6.1 mEq/L. For the same compound, the “TOT BILIRUBIN” value [3, 11] was 0 mg/dL, the “TOT PROTEIN” value [3, 11] was 6.3 g/dL (2×) and 5.8 g/dL and 5.9 g/dL and 6.2 g/dL and the CREATININE ([3]; Anatabine 0.1 mg/kg, F, Mean, n 5) was 0.44 mg/dL. For the same compound, the CHLORIDE [3, 12] was 98.00 mEq/L, the CREATININE [3, 12] was 0.36 mg/dL and the POTASSIUM [3, 12] was 6.40 mEq/L. The ALBUMIN [3, 13] was 3.5 g/dL (2×) and 3.6 g/dL (2×) and 3.4 g/dL, the “ALK PHOSPHATASE” value [3, 13] was 130 IU/L and 160 IU/L and the ALT [3, 13] was 63 IU/L and 49 IU/L (2×) and 55 IU/L and 57 IU/L. The AST [3, 13] was 95 IU/L and 69 IU/L and 76 IU/L and 54 IU/L and 72 IU/L, the BUN [3, 13] was 15 mg/dL (3×) and 16 mg/dL (2×) and the CHLORIDE [3, 13] was 97 mEq/L (2×) and 96 mEq/L and 99 mEq/L. The CHOLESTEROL [3, 13] was 66 mg/dL and 64 mg/dL and 63 mg/dL and 69 mg/dL and 87 mg/dL, the CREATININE [3, 13] was 0.5 mg/dL (2×) and 0.4 mg/dL (3×) and the “DIR BILIRUBIN” value [3, 13] was 0 mg/dL. The GLOBULIN [3, 13] was 2.7 g/dL and 3 g/dL (2×), the PHOSPHORUS [3, 13] was 9.7 mg/dL and 7.7 mg/dL and 9.6 mg/dL and 9.2 mg/dL and 7 mg/dL and the POTASSIUM [3, 13] was 5.5 mEq/L and 5.9 mEq/L and 6 mEq/L and 5.7 mEq/L and 6.3 mEq/L. For the same compound, the “TOT BILIRUBIN” value [3, 13] was 0 mg/dL, the “TOT PROTEIN” value [3, 13] was 6.3 g/dL (2×) and 6.2 g/dL and 6.6 g/dL and 6.5 g/dL and the ALBUMIN [3, 14] was 3.4 g/dL (2×) and 3.1 g/dL and 3.2 g/dL and 3.3 g/dL. The ALT [3, 14] was 75 IU/L and 57 IU/L and 65 IU/L and 50 IU/L and 87 IU/L, the AST [3, 14] was 66 IU/L and 97 IU/L and 90 IU/L and 92 IU/L and the BUN [3, 14] was 15 mg/dL and 18 mg/dL and 12 mg/dL and 17 mg/dL and 21 mg/dL. For the same compound, the CHLORIDE [3, 14] was 98 mEq/L and 99 mEq/L (2×) and 100 mEq/L and 97 mEq/L, the CHOLESTEROL [3, 14] was 69 mg/dL (2×) and 60 mg/dL and 54 mg/dL and 62 mg/dL and the CREATININE [3, 14] was 0.4 mg/dL (3×) and 0.3 mg/dL (2×). For the same compound, the “DIR BILIRUBIN” value [3, 14] was 0 mg/dL (4×) and 0.1 mg/dL, the GLOBULIN [3, 14] was 2.6 g/dL and 2.7 g/dL and 2.9 g/dL and the GLUCOSE [3, 14] was 160 mg/dL. For the same compound, the PHOSPHORUS [3, 14] was 11 mg/dL and 10 mg/dL, the POTASSIUM [3, 14] was 6.3 mEq/L (2×) and 5.4 mEq/L and 6 mEq/L and 6.6 mEq/L and the SODIUM [3, 14] was 150 mEq/L. The “TOT BILIRUBIN” value [3, 14] was 0 mg/dL (4×) and 0.1 mg/dL, the “TOT PROTEIN” value [3, 14] was 6.2 g/dL and 5.7 g/dL and 5.9 g/dL and 6.1 g/dL and 6.3 g/dL and the CHLORIDE [3, 15] was 98.00 mEq/L. For the same compound, the CREATININE [3, 15] was 0.44 mg/dL, the CREATININE ([3]; Anatabine 0.75 mg/kg, M, Mean, n 5) was 0.36 mg/dL and the “globulins vs vehicle controls, males” value ([3]; all anatabine dose levels, nicotine 0.75 mg/kg) was “marginally higher”. The “total protein vs vehicle controls, males” value ([3]; all anatabine treatment groups, nicotine 0.75 mg/kg) was “slightly increased”, the “albumin levels vs control” value ([3]; males 0.75 and […], females 0.1 and 0.75 mg/kg anatabine) was “slight increases in albumin levels” and the agonist activity (nAChR α3/β4 [4]) was “showed agonist activity”.
